{"source": "PubChem BioAssay AID1963861", "about": "(Molecular Pharmacology Branch, DTP, NCI, 2024)", "test_system": "885724-159-R-J1-PDC KRAS PDC multicell spheroid viability", "experiment": "Anticancer human tumor 885724-159-R-J1-PDC patient-derived pancreatic adenocarcinoma cell line growth inhibition [KRAS2]", "conditions": "for viability, T/C: stronger effect = lower value", "summary_of_the_method": "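KRAS-mutant tumor cells were grown as spheroids with HUVEC endothelial cells and human MSCs as stroma. Targeted agents were tested alone and with KRAS pathway inhibitors. Doses started at or near clinical Cmax, or 10 microM, descending half-log.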", "key": {"[1]": {"conditions": "curve of first compound, second compound 0.1 µM"}, "[2]": {"conditions": "curve of first compound, second compound 0.316 µM"}, "[3]": {"conditions": "curve of first compound, second compound 1 µM"}, "[4]": {"conditions": "curve of first compound, second compound 3.16 µM"}, "[5]": {"conditions": "curve of first compound, second compound 10 µM"}, "[6]": {"conditions": "second compound 0.1 µM, first compound 0.0316 µM"}, "[7]": {"conditions": "second compound 0.316 µM, first compound 0.0316 µM"}, "[8]": {"conditions": "second compound 1 µM, first compound 0.0316 µM"}, "[9]": {"conditions": "second compound 3.16 µM, first compound 0.0316 µM"}, "[10]": {"conditions": "second compound 10 µM, first compound 0.0316 µM"}}, "data": [{"molecule": "CC(=O)Nc1cccc(-n2c(=O)n(C3CC3)c(=O)c3c(Nc4ccc(I)cc4F)n(C)c(=O)c(C)c32)c1", "note": "+ COc1cc2nc(C)nc(NC(C)c3cc(N)cc(C(F)(F)F)c3)c2cc1OC1CCOC1;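 also: spheroids exposed to agents for 7 days before readout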", "values": [{"measurement": "IC50", "setting": "[1]", "result": 0.985, "unit": "nM"}, {"measurement": "IC50", "setting": "[2]", "result": 0.909, "unit": "nM"}, {"measurement": "IC50", "setting": "[3]", "result": 0.845, "unit": "nM"}, {"measurement": "IC50", "setting": "[4]", "result": 0.706, "unit": "nM"}, {"measurement": "IC50", "setting": "[5]", "result": "< 0.1", "unit": "nM"}, {"measurement": "viability, T/C", "setting": "second compound 0.1 µM, first compound 0.0001 µM", "result": 91, "unit": "%"}, {"measurement": "viability, T/C", "setting": "second compound 0.1 µM, first compound 0.000316 µM", "result": 73, "unit": "%"}, {"measurement": "viability, T/C", "setting": "second compound 0.1 µM, first compound 0.001 µM", "result": 48.1, "unit": "%"}, {"measurement": "viability, T/C", "setting": "second compound 0.1 µM, first compound 0.00316 µM", "result": 32.7, "unit": "%"}, {"measurement": "viability, T/C", "setting": "second compound 0.1 µM, first compound 0.01 µM", "result": 26.2, "unit": "%"}, {"measurement": "viability, T/C", "setting": "[6]", "result": 17, "unit": "%"}, {"measurement": "viability, T/C", "setting": "second compound 0.316 µM, first compound 0.0001 µM", "result": 87.2, "unit": "%"}, {"measurement": "viability, T/C", "setting": "second compound 0.316 µM, first compound 0.000316 µM", "result": 68.9, "unit": "%"}, {"measurement": "viability, T/C", "setting": "second compound 0.316 µM, first compound 0.001 µM", "result": 46.4, "unit": "%"}, {"measurement": "viability, T/C", "setting": "second compound 0.316 µM, first compound 0.00316 µM", "result": 34.3, "unit": "%"}, {"measurement": "viability, T/C", "setting": "second compound 0.316 µM, first compound 0.01 µM", "result": 24.9, "unit": "%"}, {"measurement": "viability, T/C", "setting": "[7]", "result": 17.3, "unit": "%"}, {"measurement": "viability, T/C", "setting": "second compound 1 µM, first compound 0.0001 µM", "result": 89.8, "unit": "%"}, {"measurement": "viability, T/C", "setting": "second compound 1 µM, first compound 0.000316 µM", "result": 68.4, "unit": "%"}, {"measurement": "viability, T/C", "setting": "second compound 1 µM, first compound 0.001 µM", "result": 46.1, "unit": "%"}, {"measurement": "viability, T/C", "setting": "second compound 1 µM, first compound 0.00316 µM", "result": 31.6, "unit": "%"}, {"measurement": "viability, T/C", "setting": "second compound 1 µM, first compound 0.01 µM", "result": 24.6, "unit": "%"}, {"measurement": "viability, T/C", "setting": "[8]", "result": 17.1, "unit": "%"}, {"measurement": "viability, T/C", "setting": "second compound 3.16 µM, first compound 0.0001 µM", "result": 74.9, "unit": "%"}, {"measurement": "viability, T/C", "setting": "second compound 3.16 µM, first compound 0.000316 µM", "result": 62.8, "unit": "%"}, {"measurement": "viability, T/C", "setting": "second compound 3.16 µM, first compound 0.001 µM", "result": 44.4, "unit": "%"}, {"measurement": "viability, T/C", "setting": "second compound 3.16 µM, first compound 0.00316 µM", "result": 27.6, "unit": "%"}, {"measurement": "viability, T/C", "setting": "second compound 3.16 µM, first compound 0.01 µM", "result": 19.1, "unit": "%"}, {"measurement": "viability, T/C", "setting": "[9]", "result": 10.7, "unit": "%"}, {"measurement": "viability, T/C", "setting": "second compound 10 µM, first compound 0.0001 µM", "result": 34.8, "unit": "%"}, {"measurement": "viability, T/C", "setting": "second compound 10 µM, first compound 0.000316 µM", "result": 18.5, "unit": "%"}, {"measurement": "viability, T/C", "setting": "second compound 10 µM, first compound 0.001 µM", "result": 3.24, "unit": "%"}, {"measurement": "viability, T/C", "setting": "second compound 10 µM, first compound 0.00316 µM", "result": 0.51, "unit": "%"}, {"measurement": "viability, T/C", "setting": "second compound 10 µM, first compound 0.01 µM", "result": 0.67, "unit": "%"}, {"measurement": "viability, T/C", "setting": "[10]", "result": 0.32, "unit": "%"}]}, {"molecule": "CN(C)C/C=C/C(=O)Nc1cc2c(Nc3ccc(F)c(Cl)c3)ncnc2cc1O[C@H]1CCOC1", "values": [{"measurement": "viability, T/C", "setting": "compound 0.000316 µM", "result": "107% [middle of 5 runs]"}, {"measurement": "viability, T/C", "setting": "compound 0.001 µM", "result": "104% [middle of 5 runs]"}, {"measurement": "viability, T/C", "setting": "compound 0.01 µM", "result": "95.3% [middle of 5 runs]"}, {"measurement": "viability, T/C", "setting": "compound 0.0316 µM", "result": "81.5% [middle of 5 runs]"}, {"measurement": "viability, T/C", "setting": "compound 0.1 µM", "result": "77.5% [middle of 5 runs]"}, {"measurement": "IC50", "setting": "curve of compound", "result": "> 100", "unit": "nM"}]}, {"molecule": "CCNC(=O)CC1N=C(c2ccc(Cl)cc2)c2cc(OC)ccc2-n2c(C)nnc21", "note": "(stereo unspecified) + CC1OCC2(CCN(c3cnc(Sc4ccnc(N)c4Cl)c(N)n3)CC2)C1N", "values": [{"measurement": "IC50", "setting": "[1]", "result": 1000, "unit": "nM"}, {"measurement": "IC50", "setting": "[2]", "result": 676, "unit": "nM"}, {"measurement": "IC50", "setting": "[3]", "result": 600, "unit": "nM"}, {"measurement": "IC50", "setting": "[4]", "result": 437, "unit": "nM"}, {"measurement": "IC50", "setting": "[5]", "result": 256, "unit": "nM"}, {"measurement": "viability, T/C", "setting": "[6]", "result": 92.8, "unit": "%"}, {"measurement": "viability, T/C", "setting": "second compound 0.1 µM, first compound 0.1 µM", "result": 95, "unit": "%"}, {"measurement": "viability, T/C", "setting": "second compound 0.1 µM, first compound 0.316 µM", "result": 67.2, "unit": "%"}, {"measurement": "viability, T/C", "setting": "second compound 0.1 µM, first compound 1 µM", "result": 54.5, "unit": "%"}, {"measurement": "viability, T/C", "setting": "second compound 0.1 µM, first compound 3.16 µM", "result": 43.9, "unit": "%"}, {"measurement": "viability, T/C", "setting": "second compound 0.1 µM, first compound 10 µM", "result": 49.5, "unit": "%"}, {"measurement": "viability, T/C", "setting": "[7]", "result": 86.1, "unit": "%"}, {"measurement": "viability, T/C", "setting": "second compound 0.316 µM, first compound 0.1 µM", "result": 80, "unit": "%"}, {"measurement": "viability, T/C", "setting": "second compound 0.316 µM, first compound 0.316 µM", "result": 59.2, "unit": "%"}, {"measurement": "viability, T/C", "setting": "second compound 0.316 µM, first compound 1 µM", "result": 45.2, "unit": "%"}, {"measurement": "viability, T/C", "setting": "second compound 0.316 µM, first compound 3.16 µM", "result": 44, "unit": "%"}, {"measurement": "viability, T/C", "setting": "second compound 0.316 µM, first compound 10 µM", "result": 40.2, "unit": "%"}, {"measurement": "viability, T/C", "setting": "[8]", "result": 80.5, "unit": "%"}, {"measurement": "viability, T/C", "setting": "second compound 1 µM, first compound 0.1 µM", "result": 80, "unit": "%"}, {"measurement": "viability, T/C", "setting": "second compound 1 µM, first compound 0.316 µM", "result": 56.6, "unit": "%"}, {"measurement": "viability, T/C", "setting": "second compound 1 µM, first compound 1 µM", "result": 45, "unit": "%"}, {"measurement": "viability, T/C", "setting": "second compound 1 µM, first compound 3.16 µM", "result": 38.5, "unit": "%"}, {"measurement": "viability, T/C", "setting": "second compound 1 µM, first compound 10 µM", "result": 33.9, "unit": "%"}, {"measurement": "viability, T/C", "setting": "[9]", "result": 74, "unit": "%"}, {"measurement": "viability, T/C", "setting": "second compound 3.16 µM, first compound 0.1 µM", "result": 72.5, "unit": "%"}, {"measurement": "viability, T/C", "setting": "second compound 3.16 µM, first compound 0.316 µM", "result": 54.1, "unit": "%"}, {"measurement": "viability, T/C", "setting": "second compound 3.16 µM, first compound 1 µM", "result": 37.9, "unit": "%"}, {"measurement": "viability, T/C", "setting": "second compound 3.16 µM, first compound 3.16 µM", "result": 33.5, "unit": "%"}, {"measurement": "viability, T/C", "setting": "second compound 3.16 µM, first compound 10 µM", "result": 30.1, "unit": "%"}, {"measurement": "viability, T/C", "setting": "[10]", "result": 66.9, "unit": "%"}, {"measurement": "viability, T/C", "setting": "second compound 10 µM, first compound 0.1 µM", "result": 61.9, "unit": "%"}, {"measurement": "viability, T/C", "setting": "second compound 10 µM, first compound 0.316 µM", "result": 47.5, "unit": "%"}, {"measurement": "viability, T/C", "setting": "second compound 10 µM, first compound 1 µM", "result": 31.6, "unit": "%"}, {"measurement": "viability, T/C", "setting": "second compound 10 µM, first compound 3.16 µM", "result": 26.4, "unit": "%"}, {"measurement": "viability, T/C", "setting": "second compound 10 µM, first compound 10 µM", "result": 26.2, "unit": "%"}]}]}
